Measured values reported in patent US9446061B2, “Composition containing antibiotics and lysophosphatidylcholine for boosting immunity or treatment of bacterial infections” (priority 2011, dated 2016).

What was measured:
[1] = system: CPA-CLP sepsis mouse model; experiment: Effects of LPC, LPC isomers, Xigris and DW286aa on mortalities/survivabilities in CPA-CLP sepsis mouse model (SEP009); single i.v. 6 hrs after CLP; assay type: in vivo
Method: (§1) CPA is well known as an immunosuppressive agent. […] Then, the abdomen was closed following the general procedure.
(§2) Then, body weight and mortality changes were observed.
In the Sham and CLP control groups, 10 ml/kg of only sterile physiological saline was single intravenously dosed.

[2] = system: CPA-CLP sepsis mouse model; experiment: Combination effects of LPC and antibiotics (colistin, tobramycin, fusidin) in CPA-CLP sepsis mouse model (SEP013); single i.v. 6 hrs after CLP; assay type: in vivo, ICR mice; settings: mpk: LPC 5, DW286aa 5, Colistin 5, Tobra 4, Fusidin 80, LPC + Colistin 5 + 5, LPC + Tobra 5 + 4, LPC + Fusidin 5 + 80
Source text: as §1, §2

[3] = LPC, LPC18:0, LPC18:1, LPA 5 mpk, Xigris 0.4 mpk, DW286aa 10 mpk, 1st CPA treat
[4] = LPC, LPC18:0, LPC18:1, LPA 5 mpk, Xigris 0.4 mpk, DW286aa 10 mpk, 2nd CPA treat
[5] = LPC, LPC18:0, LPC18:1, LPA 5 mpk, Xigris 0.4 mpk, DW286aa 10 mpk, At CLP (day 0)
[6] = LPC, LPC18:0, LPC18:1, LPA 5 mpk, Xigris 0.4 mpk, DW286aa 10 mpk, Day 1
[7] = LPC, LPC18:0, LPC18:1, LPA 5 mpk, Xigris 0.4 mpk, DW286aa 10 mpk, Day 2
[8] = LPC, LPC18:0, LPC18:1, LPA 5 mpk, Xigris 0.4 mpk, DW286aa 10 mpk, Day 3
[9] = LPC, LPC18:0, LPC18:1, LPA 5 mpk, Xigris 0.4 mpk, DW286aa 10 mpk, Day 4
[10] = LPC, LPC18:0, LPC18:1, LPA 5 mpk, Xigris 0.4 mpk, DW286aa 10 mpk, Day 5
[11] = LPC, LPC18:0, LPC18:1, LPA 5 mpk, Xigris 0.4 mpk, DW286aa 10 mpk, Day 6
[12] = LPC, LPC18:0, LPC18:1, LPA 5 mpk, Xigris 0.4 mpk, DW286aa 10 mpk, Day 7
[13] = LPC, LPC18:0, LPC18:1, LPA 5 mpk, Xigris 0.4 mpk, DW286aa 10 mpk, Day 8
[14] = LPC, LPC18:0, LPC18:1, LPA 5 mpk, Xigris 0.4 mpk, DW286aa 10 mpk, Day 9
[15] = LPC, LPC18:0, LPC18:1, LPA 5 mpk, Xigris 0.4 mpk, DW286aa 10 mpk, Day 10
[16] = LPC, LPC18:0, LPC18:1, LPA 5 mpk, Xigris 0.4 mpk, DW286aa 10 mpk, Total
[17] = Xigris 2 mpk, DW286aa 20 mpk, 1st CPA treat
[18] = Xigris 2 mpk, DW286aa 20 mpk, 2nd CPA treat
[19] = Xigris 2 mpk, DW286aa 20 mpk, At CLP (day 0)
[20] = Xigris 2 mpk, DW286aa 20 mpk, Day 1
[21] = Xigris 2 mpk, DW286aa 20 mpk, Day 2
[22] = Xigris 2 mpk, DW286aa 20 mpk, Day 3
[23] = Xigris 2 mpk, DW286aa 20 mpk, Day 4
[24] = Xigris 2 mpk, DW286aa 20 mpk, Day 5
[25] = Xigris 2 mpk, DW286aa 20 mpk, Day 6
[26] = Xigris 2 mpk, DW286aa 20 mpk, Day 7
[27] = Xigris 2 mpk, DW286aa 20 mpk, Day 8
[28] = Xigris 2 mpk, DW286aa 20 mpk, Day 9
[29] = Xigris 2 mpk, DW286aa 20 mpk, Day 10
[30] = Xigris 2 mpk, DW286aa 20 mpk, Total

drotrecogin alfa (activated) [Xigris, reference compound]
Mortalities [1, 3]: 0 | survivabilities [1, 3]: 100% | Mortalities [1, 4]: 0 | survivabilities [1, 4]: 100% | Mortalities [1, 5]: 0 | survivabilities [1, 5]: 100% | Mortalities [1, 6]: 3 | survivabilities [1, 6]: 70% | Mortalities [1, 7]: 4 | survivabilities [1, 7]: 30% | Mortalities [1, 8]: 2 | survivabilities [1, 8]: 10% | Mortalities [1, 9]: 0 | survivabilities [1, 9]: 10% | Mortalities [1, 10]: 0 | survivabilities [1, 10]: 10% | Mortalities [1, 11]: 0 | survivabilities [1, 11]: 10% | Mortalities [1, 12]: 0 | survivabilities [1, 12]: 10% | Mortalities [1, 13]: 1 | survivabilities [1, 13]: 0% | Mortalities [1, 14]: 0 | survivabilities [1, 14]: 0% | Mortalities [1, 15]: 0 | survivabilities [1, 15]: 0% | Mortalities [1, 16]: 10 | survivabilities [1, 16]: 0% | Mortalities [1, 17]: 0 | survivabilities [1, 17]: 100% | Mortalities [1, 18]: 0 | survivabilities [1, 18]: 100% | Mortalities [1, 19]: 0 | survivabilities [1, 19]: 100% | Mortalities [1, 20]: 0 | survivabilities [1, 20]: 100% | Mortalities [1, 21]: 5 | survivabilities [1, 21]: 50% | Mortalities [1, 22]: 1 | survivabilities [1, 22]: 40% | Mortalities [1, 23]: 3 | survivabilities [1, 23]: 10% | Mortalities [1, 24]: 0 | survivabilities [1, 24]: 10% | Mortalities [1, 25]: 0 | survivabilities [1, 25]: 10% | Mortalities [1, 26]: 0 | survivabilities [1, 26]: 10% | Mortalities [1, 27]: 1 | survivabilities [1, 27]: 0% | Mortalities [1, 28]: 0 | survivabilities [1, 28]: 0% | Mortalities [1, 29]: 0 | survivabilities [1, 29]: 0% | Mortalities [1, 30]: 10 | survivabilities [1, 30]: 0%

NC[C@H]1O[C@H](O[C@H]2[C@H](O)[C@@H](O[C@H]3O[C@H](CO)[C@@H](O)[C@H](N)[C@H]3O)[C@H](N)C[C@@H]2N)[C@H](N)C[C@@H]1O [Tobra, tobramycin]
Mortalities ([2]; 1st CPA treat): 0 | Survivalities ([2]; 1st CPA treat): 100% | Mortalities ([2]; 2nd CPA treat): 0 | Survivalities ([2]; 2nd CPA treat): 100% | Mortalities ([2]; At CLP (day 0)): 0 | Survivalities ([2]; At CLP (day 0)): 100% | Mortalities ([2]; Day 1): 2 | Survivalities ([2]; Day 1): 80% | Mortalities ([2]; Day 2): 5 | Survivalities ([2]; Day 2): 30% | Mortalities ([2]; Day 3): 1 | Survivalities ([2]; Day 3): 20% | Mortalities ([2]; Total): 8 | Survivalities ([2]; Total): 20%

CC(=O)O[C@H]1C[C@@]2(C)[C@@H](C[C@@H](O)[C@H]3[C@@]4(C)CC[C@@H](O)[C@@H](C)[C@@H]4CC[C@@]32C)/C1=C(\CCC=C(C)C)C(=O)O [Fusidin, fusidic acid]
Mortalities ([2]; 1st CPA treat): 0 | Survivalities ([2]; 1st CPA treat): 100% | Mortalities ([2]; 2nd CPA treat): 0 | Survivalities ([2]; 2nd CPA treat): 100% | Mortalities ([2]; At CLP (day 0)): 0 | Survivalities ([2]; At CLP (day 0)): 100% | Mortalities ([2]; Day 1): 2 | Survivalities ([2]; Day 1): 80% | Mortalities ([2]; Day 2): 5 | Survivalities ([2]; Day 2): 30% | Mortalities ([2]; Day 3): 1 | Survivalities ([2]; Day 3): 20% | Mortalities ([2]; Total): 8 | Survivalities ([2]; Total): 20%

CCCCCCCCCCCCCCCCCC(=O)OC[C@@H](O)COP(=O)([O-])OCC[N+](C)(C)C [LPC18:0]
Mortalities [1, 3]: 0 | survivabilities [1, 3]: 100% | Mortalities [1, 4]: 0 | survivabilities [1, 4]: 100% | Mortalities [1, 5]: 0 | survivabilities [1, 5]: 100% | Mortalities [1, 6]: 0 | survivabilities [1, 6]: 100% | Mortalities [1, 7]: 6 | survivabilities [1, 7]: 40% | Mortalities [1, 8]: 0 | survivabilities [1, 8]: 40% | Mortalities [1, 9]: 1 | survivabilities [1, 9]: 30% | Mortalities [1, 10]: 1 | survivabilities [1, 10]: 20% | Mortalities [1, 11]: 0 | survivabilities [1, 11]: 20% | Mortalities [1, 12]: 1 | survivabilities [1, 12]: 10% | Mortalities [1, 13]: 1 | survivabilities [1, 13]: 0% | Mortalities [1, 14]: 0 | survivabilities [1, 14]: 0% | Mortalities [1, 15]: 0 | survivabilities [1, 15]: 0% | Mortalities [1, 16]: 10 | survivabilities [1, 16]: 0%

1-oleoyl-2-hydroxy-sn-glycero-3-phosphocholine [LPC18:1]
Mortalities [1, 3]: 0 | survivabilities [1, 3]: 100% | Mortalities [1, 4]: 0 | survivabilities [1, 4]: 100% | Mortalities [1, 5]: 0 | survivabilities [1, 5]: 100% | Mortalities [1, 6]: 0 | survivabilities [1, 6]: 100% | Mortalities [1, 7]: 10 | survivabilities [1, 7]: 0% | Mortalities [1, 8]: 0 | survivabilities [1, 8]: 0% | Mortalities [1, 9]: 0 | survivabilities [1, 9]: 0% | Mortalities [1, 10]: 0 | survivabilities [1, 10]: 0% | Mortalities [1, 11]: 0 | survivabilities [1, 11]: 0% | Mortalities [1, 12]: 0 | survivabilities [1, 12]: 0% | Mortalities [1, 13]: 0 | survivabilities [1, 13]: 0% | Mortalities [1, 14]: 0 | survivabilities [1, 14]: 0% | Mortalities [1, 15]: 0 | survivabilities [1, 15]: 0% | Mortalities [1, 16]: 10 | survivabilities [1, 16]: 0%

colistin
Mortalities ([2]; 1st CPA treat): 0 | Survivalities ([2]; 1st CPA treat): 100% | Mortalities ([2]; 2nd CPA treat): 0 | Survivalities ([2]; 2nd CPA treat): 100% | Mortalities ([2]; At CLP (day 0)): 0 | Survivalities ([2]; At CLP (day 0)): 100% | Mortalities ([2]; Day 1): 1 | Survivalities ([2]; Day 1): 90% | Mortalities ([2]; Day 2): 5 | Survivalities ([2]; Day 2): 40% | Mortalities ([2]; Day 3): 2 | Survivalities ([2]; Day 3): 20% | Mortalities ([2]; Total): 9 | Survivalities ([2]; Total): 20%
